The source of these data is US20240398836A1, “EPOXY STEROIDS” (priority 2021, published 2024).

Common to all, as to format: cell-based
In data set [1] the test system is Nalm-6 cells. Kind of data set: Inhibition of proliferation in leukemia cells (Nalm-6). As to conditions: Nalm-6, 24 h, concentration-dependent. The procedure:
In leukemia cells (Nalm-6), cell proliferation is inhibited. After 24 h, 1×10^5 cells will have proliferated to almost threefold (2.97×10^5 cells), while cell proliferation is inhibited up to 100% in a concentration-dependent way by treatment with the steroid WIL 071, see FIG. 1. The experiments were performed in triplicate. The error bars show the standard deviations of the measured values of three independent experiments.

Another data set has as its system NaKu cells. Description: Apoptosis induction in steroid- and polycytostatics-resistant NaKu cells vs Nalm-6. To be noted: steroid- and polycytostatics-resistant leukemia cells (ALL). On the procedure: The experiments were performed in triplicate. The error bars show the standard deviations of the measured values of three independent experiments.
The steroid WIL 071 overcomes steroid resistence in leukemia cells (NaKu cells). Further, the steroid-resistent leukemia cells (NaKu cells) have co-resistencies for the following cytostatics: • prednisolone, methylprednisolone, dexamethasone, • doxorubicin, daunorubicin, idarubicin, epirubicin • cytarabine, cladribine • etoposide • cyclophosphamide, ifosfamide • vindesine • cisplatin, carboplatin, oxaliplatin

For a further data set, the system named is BiBo cells. Description: Apoptosis induction in polycytostatics-resistant BiBo cells vs BJAB. As to conditions: vincristine-resistant BJAB, Bcl-2 overexpression. On the procedure:
BiBo cells are lymphoma cells (BJAB cells) that have been made resistent against vincristine, and have a Bcl-2 overexpression as a resistence mechanism. They have co-resistences for the following cytostatics: • vincristine, vinblastine, vindesine, vinorelbin, taxol • cytarabin • daunorubicin.
The experiments were performed in triplicate. The error bars show the standard deviations of the measured values of three independent experiments. The steroid WIL 071 overcomes steroid resistence in lymphoma cells (BiBo cells).

In a further data set the test system is 7-CCA cells. Kind of data set: Apoptosis induction in polycytostatics-resistant 7-CCA cells vs BJAB. As to conditions: doxorubicin-resistant BJAB, caspase-3 underexpression. The procedure:
7-CCA cells are lymphoma cells (BJAB cells) that have been made resistent against doxorubin, and have a caspase-3 underexpression as a resistence mechanism. They have co-resistences for the following cytostatics: • vincristine, vinblastine, vindesine, vinorelbin, taxol • cytarabin, fudarabin, cladribin, clofarabin, • daunorubicin, doxorubicin, idarubicin, epirubicin • cisplatin, oxaliplatin
The experiments were performed in triplicate. The error bars show the standard deviations of the measured values of three independent experiments. The steroid WIL 071 overcomes steroid resistence in lymphoma cells (7-CCA cells).

Data set [2] has as its system Nalm-6 cells. Description: Selectivity: apoptosis (DNA fragmentation, flow cytometry) in leukemia cells. On the procedure: (§1) WIL 071 acts selectively in malignant cells that are proliferating.
(§2) The DNA fragmentation was measured by flow cytometry, see FIG. 7. The experiments were performed in triplicate. The error bars show the standard deviations of the measured values of three independent experiments.

A further data set relates to BJAB cells. Kind of data set: Selectivity: apoptosis (DNA fragmentation, flow cytometry) in lymphoma cells. On the procedure:
as §1, §2

A further data set relates to human primary leukocytes. Kind of data set: Selectivity: apoptosis (DNA fragmentation, flow cytometry) in leukocytes. On the procedure: as §1, §2
Data set [3] deals with glioblastoma cells (DBTRG05MG cells). Description: Apoptosis in brain tumor cells. The procedure:
In contrast to conventional glucocorticoids, the steroid WIL 071 can induce apoptosis also in brain tumor cells.
The DNA fragmentation was measured by flow cytometry, see FIG. 9. The experiments were performed in triplicate. The error bars show the standard deviations of the measured values of three independent experiments.

Data set [4] concerns primary glioblastoma cells of a patient. Description: Apoptosis in primary human glioblastoma cells. As to conditions: grade 4. The procedure: In contrast to conventional glucocorticoids, the steroid WIL 071 can induce apoptosis also in primary human brain tumor cells.
The DNA fragmentation was measured by flow cytometry, see FIG. 10. The experiments were performed in triplicate. The error bars show the standard deviations of the measured values of three independent experiments.

The test system of data set [5] is pancreatic carcinoma cells (DAN-G). Description: Apoptosis in pancreatic carcinoma cells. As to conditions: DAN-G cell line. On the procedure:
In contrast to conventional glucocorticoids, the steroid WIL 071 can induce apoptosis also in pancreatic carcinoma cells.
The DNA fragmentation was measured by flow cytometry, see FIG. 11. The experiments were performed in triplicate. The error bars show the standard deviations of the measured values of three independent experiments.
The standard treatment for pancreatic carcinoma includes 5-fluorouracil.

Data set [6] has as its system Nalm-6 cells. Description: Half-maximal apoptosis induction (AC50) in Nalm-6 cells. As to conditions: Homo sapiens; Nalm-6, 72 h, flow cytometry; read-out: Biological effect: half-maximal apoptosis induction (AC50). On the procedure:
Apoptosis Induction in Nalm-6 Cells after Treatment with WIL-071 or Different Steroid Derivatives.
(§3) The cells were incubated in 6-well plates with 1.0·10^5 cells/mL in two milliliters of medium with the respective steroid derivative in different concentrations. The included solvent control (DMSO) served as a control, which was subtracted from all the other measured values, in order not to take into account the spontaneous apoptosis of the cells that takes place independently of the concentration of active ingredient. After 72 h, a modified cell cycle analysis was performed, in order to quantify the proportion of apoptotic cells by flow cytometry. For each concentration of the steroid, the respective mean values f standard deviations, n=3 (*: p<0.05 vs. DMSO, t test) were determined. Using the curve of the dose-effect relationship (steroid concentration−apoptosis induction) formed from these measured values, the steroid concentration at which apoptosis was triggered in 50% of the tested leukemia cells was read.

For data set [7], the system named is prednisolone-resistant leukemia cells. Kind of data set: Overcoming of prednisolone resistance. As to conditions: 72 h. On the procedure: as §3
Prednisolone resistance is said to be overcome if the induction of apoptosis in prednisolone-resistant leukemia cells is as high as it is in normal leukemia cells.

In the case of `CC(C)CCC[C@@H](C)[C@H]1CC[C@H]2[C@@H]3[C@H]4OC[C@@]5(CC[C@H](O)C[C@]5(O)C4=O)[C@H]3CC[C@]12C` [WIL-071, 3β,5α-dihydroxy-7β,19-epoxy-cholestan-6-one], the “inhibition of cell proliferation” value in the data set on Nalm-6 cells [1] was “up to 100%”. Also, in the data set with NaKu cells, the “apoptosis induction in resistant NaKu cells compared with Nalm-6” value is “induces as much apoptosis as in the non-resistent leukemia cells (Nalm-6)”. In addition, the “apoptosis induction in resistant BiBo cells compared with BJAB” value in the data set with BiBo cells was “induces as much apoptosis as in the non-resistent lymphoma cells”. In addition, the “apoptosis induction in resistant 7-CCA cells compared with BJAB” value in the data set on 7-CCA cells is recorded as “induces as much apoptosis as in the non-resistent lymphoma cells”. In addition, the “apoptosis induction (DNA fragmentation)” value was “apoptosis is induced in a concentration-dependent way” in the data set on Nalm-6 cells [2]; “apoptosis is induced in a concentration-dependent way” in the data set with BJAB cells; “apoptosis is not induced” in the data set with human primary leukocytes; “significantly induces apoptosis” in data set [3]; “significantly induces apoptosis” in [4]; “significantly induces apoptosis” in data set [5]. In addition, the AC50 in the data set on Nalm-6 cells [6] was found to be 17.2 µM. This compound registered an EC50 in [7] of 16 µM.
